± gives the standard deviation of the averaged measurements.
tested on: HL-60; assay: cell viability (% survival relative to DMSO control); higher = less cytotoxic; settings: 0.001 µM; 72 h; co-treatment: GSK2194069 100 nM
In short: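 HL-60 cells grown in RPMI 1640 with 10% FBS were rescreened against the full library in 384-well plates, in duplicate, at five tenfold concentrations from 1 to 10,000 nM, alongside DMSO or 100 nM of one of three metabolic inhibitors for 72 h at 37 °C, 5% CO2. Reference wells contained DMSO or 10 μM proteasome inhibitor. Viability was read with CellTiter-Glo and normalised to these reference wells, and where reported, area under the curve was taken from four-parameter log-logistic fits in drc and PharmacoGx.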

`Cc1cccc(Nc2cc(Cl)nc(SCC(=O)O)n2)c1C` [Pirinixic acid] and `C=CCN(C)CCCCCCOc1ccc(C(=O)c2ccc(Br)cc2)c(F)c1.O=C(O)/C=C/C(=O)O` [Ro 48-8071 fumarate] are within error of each other in cell viability: 70.6 ± 36% for the first, 103 ± 10% for the second.

With `C[C@]12C=CC(=O)C=C1CC[C@@H]1[C@@H]2[C@@H](O)C[C@@]2(C)[C@H]1CC[C@]2(O)C(=O)CO` [Prednisolone] the cell viability was 94.8 ± 4.2%.

same assay, conditions: 0.001 µM; 72 h; co-treatment: pictilisib 100 nM

`CN(Cc1cnc2nc(N)nc(N)c2n1)c1ccc(C(=O)N[C@@H](CCC(=O)O)C(=O)O)cc1` [Methotrexate] and `C=CCN(C)CCCCCCOc1ccc(C(=O)c2ccc(Br)cc2)c(F)c1.O=C(O)/C=C/C(=O)O` [Ro 48-8071 fumarate] are within error of each other in cell viability: 104 ± 12% for the first, 113 ± 27% for the second.

`COC(=O)c1cc2c(C(F)(F)F)cc(-c3ccccc3)cc2n1O` [NHI-2] and `Cc1cccc(Nc2cc(Cl)nc(SCC(=O)O)n2)c1C` [Pirinixic acid] are within error of each other in cell viability: 96.9 ± 18% for the first, 96.5 ± 14% for the second.

`CCCCCCCC/C=C\CCCCCCCC(=O)Nc1ccccc1` [Octadec-9-Enoic Acid Phenylamide] and `CC(=O)Nc1nc(C)c(-c2ccc(Cl)c(S(=O)(=O)NCCO)c2)s1` [PIK93] are within error of each other in cell viability: 98.2 ± 4.6% for the first, 102 ± 8.8% for the second.

First: CC[C@H](C)[C@H](N)C(=O)N1CCSC1 [P32/98]
Second: C[C@]12C=CC(=O)C=C1CC[C@@H]1[C@@H]2[C@@H](O)C[C@@]2(C)[C@H]1CC[C@]2(O)C(=O)CO [Prednisolone]
The cell viability of the first is higher: 105 ± 1.3% for the first, 90 ± 9.9% for the second.

First: OC[C@H]1O[C@@H](n2cnc3c2N=CNC[C@H]3O)C[C@@H]1O [Pentostatin]
Second: CC(C)CC(=O)N[C@H](C(=O)N[C@H](C(=O)N[C@@H](CC(C)C)[C@@H](O)CC(=O)N[C@@H](C)C(=O)N[C@@H](CC(C)C)[C@@H](O)CC(=O)O)C(C)C)C(C)C [Pepstatin A]
The cell viability of the first is lower: 89.2 ± 4.1% for the first, 99.8 ± 4.1% for the second.

same assay, conditions: 0.01 µM; 72 h; co-treatment: AZD3965 100 nM

`CN(Cc1cnc2nc(N)nc(N)c2n1)c1ccc(C(=O)N[C@@H](CCC(=O)O)C(=O)O)cc1` [Methotrexate] and `C=CCN(C)CCCCCCOc1ccc(C(=O)c2ccc(Br)cc2)c(F)c1.O=C(O)/C=C/C(=O)O` [Ro 48-8071 fumarate] are within error of each other in cell viability: 50.6 ± 35% for the first, 92.3 ± 10% for the second.

Going from `COC(=O)c1cc2c(C(F)(F)F)cc(-c3ccccc3)cc2n1O` [NHI-2] to `Cc1cccc(Nc2cc(Cl)nc(SCC(=O)O)n2)c1C` [Pirinixic acid], the cell viability rises from 90.5 ± 6% to 99 ± 2%.

`CCCCCCCC/C=C\CCCCCCCC(=O)Nc1ccccc1` [Octadec-9-Enoic Acid Phenylamide] and `CC(=O)Nc1nc(C)c(-c2ccc(Cl)c(S(=O)(=O)NCCO)c2)s1` [PIK93] are within error of each other in cell viability: 98.61 ± 0.52% for the first, 103 ± 16% for the second.

`CC[C@H](C)[C@H](N)C(=O)N1CCSC1` [P32/98] and `C[C@]12C=CC(=O)C=C1CC[C@@H]1[C@@H]2[C@@H](O)C[C@@]2(C)[C@H]1CC[C@]2(O)C(=O)CO` [Prednisolone] are within error of each other in cell viability: 97.4 ± 1.5% for the first, 96.7 ± 2.1% for the second.

`OC[C@H]1O[C@@H](n2cnc3c2N=CNC[C@H]3O)C[C@@H]1O` [Pentostatin] and `CC(C)CC(=O)N[C@H](C(=O)N[C@H](C(=O)N[C@@H](CC(C)C)[C@@H](O)CC(=O)N[C@@H](C)C(=O)N[C@@H](CC(C)C)[C@@H](O)CC(=O)O)C(C)C)C(C)C` [Pepstatin A] are within error of each other in cell viability: 105 ± 3.7% for the first, 107 ± 7.4% for the second.

same assay, conditions: 0.01 µM; 72 h; co-treatment: DMSO vehicle

`CN(Cc1cnc2nc(N)nc(N)c2n1)c1ccc(C(=O)N[C@@H](CCC(=O)O)C(=O)O)cc1` [Methotrexate] and `C=CCN(C)CCCCCCOc1ccc(C(=O)c2ccc(Br)cc2)c(F)c1.O=C(O)/C=C/C(=O)O` [Ro 48-8071 fumarate] are within error of each other in cell viability: 68.4 ± 33% for the first, 86.3 ± 14% for the second.

`COC(=O)c1cc2c(C(F)(F)F)cc(-c3ccccc3)cc2n1O` [NHI-2] and `Cc1cccc(Nc2cc(Cl)nc(SCC(=O)O)n2)c1C` [Pirinixic acid] are within error of each other in cell viability: 100 ± 4% for the first, 94.5 ± 4.6% for the second.

`CCCCCCCC/C=C\CCCCCCCC(=O)Nc1ccccc1` [Octadec-9-Enoic Acid Phenylamide] and `CC(=O)Nc1nc(C)c(-c2ccc(Cl)c(S(=O)(=O)NCCO)c2)s1` [PIK93] are within error of each other in cell viability: 91.3 ± 13% for the first, 101 ± 3.5% for the second.

`CC[C@H](C)[C@H](N)C(=O)N1CCSC1` [P32/98] and `C[C@]12C=CC(=O)C=C1CC[C@@H]1[C@@H]2[C@@H](O)C[C@@]2(C)[C@H]1CC[C@]2(O)C(=O)CO` [Prednisolone] are within error of each other in cell viability: 105 ± 3.5% for the first, 104 ± 5.2% for the second.

`OC[C@H]1O[C@@H](n2cnc3c2N=CNC[C@H]3O)C[C@@H]1O` [Pentostatin] and `CC(C)CC(=O)N[C@H](C(=O)N[C@H](C(=O)N[C@@H](CC(C)C)[C@@H](O)CC(=O)N[C@@H](C)C(=O)N[C@@H](CC(C)C)[C@@H](O)CC(=O)O)C(C)C)C(C)C` [Pepstatin A] are within error of each other in cell viability: 105 ± 7.4% for the first, 101 ± 1.7% for the second.

same assay, conditions: 0.01 µM; 72 h; co-treatment: GSK2194069 100 nM

`CN(Cc1cnc2nc(N)nc(N)c2n1)c1ccc(C(=O)N[C@@H](CCC(=O)O)C(=O)O)cc1` [Methotrexate] and `C=CCN(C)CCCCCCOc1ccc(C(=O)c2ccc(Br)cc2)c(F)c1.O=C(O)/C=C/C(=O)O` [Ro 48-8071 fumarate] are within error of each other in cell viability: 72.4 ± 38% for the first, 68.3 ± 46% for the second.

`COC(=O)c1cc2c(C(F)(F)F)cc(-c3ccccc3)cc2n1O` [NHI-2] and `Cc1cccc(Nc2cc(Cl)nc(SCC(=O)O)n2)c1C` [Pirinixic acid] are within error of each other in cell viability: 94.829 ± 0.083% for the first, 89.6 ± 7.2% for the second.

`CCCCCCCC/C=C\CCCCCCCC(=O)Nc1ccccc1` [Octadec-9-Enoic Acid Phenylamide] and `CC(=O)Nc1nc(C)c(-c2ccc(Cl)c(S(=O)(=O)NCCO)c2)s1` [PIK93] are within error of each other in cell viability: 98 ± 9.1% for the first, 106 ± 5.3% for the second.

`CC[C@H](C)[C@H](N)C(=O)N1CCSC1` [P32/98] and `C[C@]12C=CC(=O)C=C1CC[C@@H]1[C@@H]2[C@@H](O)C[C@@]2(C)[C@H]1CC[C@]2(O)C(=O)CO` [Prednisolone] are within error of each other in cell viability: 100 ± 3.4% for the first, 101 ± 17% for the second.

First: OC[C@H]1O[C@@H](n2cnc3c2N=CNC[C@H]3O)C[C@@H]1O [Pentostatin]
Second: CC(C)CC(=O)N[C@H](C(=O)N[C@H](C(=O)N[C@@H](CC(C)C)[C@@H](O)CC(=O)N[C@@H](C)C(=O)N[C@@H](CC(C)C)[C@@H](O)CC(=O)O)C(C)C)C(C)C [Pepstatin A]
The cell viability of the first is lower: 101 ± 2.8% for the first, 108 ± 1.3% for the second.

same assay, conditions: 0.01 µM; 72 h; co-treatment: pictilisib 100 nM

`CN(Cc1cnc2nc(N)nc(N)c2n1)c1ccc(C(=O)N[C@@H](CCC(=O)O)C(=O)O)cc1` [Methotrexate] and `C=CCN(C)CCCCCCOc1ccc(C(=O)c2ccc(Br)cc2)c(F)c1.O=C(O)/C=C/C(=O)O` [Ro 48-8071 fumarate] are within error of each other in cell viability: 69.8 ± 32% for the first, 93.6 ± 13% for the second.

`COC(=O)c1cc2c(C(F)(F)F)cc(-c3ccccc3)cc2n1O` [NHI-2] and `Cc1cccc(Nc2cc(Cl)nc(SCC(=O)O)n2)c1C` [Pirinixic acid] are within error of each other in cell viability: 92.8 ± 10% for the first, 80.8 ± 28% for the second.

Going from `CCCCCCCC/C=C\CCCCCCCC(=O)Nc1ccccc1` [Octadec-9-Enoic Acid Phenylamide] to `CC(=O)Nc1nc(C)c(-c2ccc(Cl)c(S(=O)(=O)NCCO)c2)s1` [PIK93], the cell viability rises from 99 ± 3.9% to 107 ± 2.6%.

`CC[C@H](C)[C@H](N)C(=O)N1CCSC1` [P32/98] and `C[C@]12C=CC(=O)C=C1CC[C@@H]1[C@@H]2[C@@H](O)C[C@@]2(C)[C@H]1CC[C@]2(O)C(=O)CO` [Prednisolone] are within error of each other in cell viability: 106 ± 19% for the first, 92.8 ± 18% for the second.

`OC[C@H]1O[C@@H](n2cnc3c2N=CNC[C@H]3O)C[C@@H]1O` [Pentostatin] and `CC(C)CC(=O)N[C@H](C(=O)N[C@H](C(=O)N[C@@H](CC(C)C)[C@@H](O)CC(=O)N[C@@H](C)C(=O)N[C@@H](CC(C)C)[C@@H](O)CC(=O)O)C(C)C)C(C)C` [Pepstatin A] are within error of each other in cell viability: 102 ± 3.8% for the first, 117 ± 15% for the second.

same assay, conditions: 0.1 µM; 72 h; co-treatment: AZD3965 100 nM

Going from `CN(Cc1cnc2nc(N)nc(N)c2n1)c1ccc(C(=O)N[C@@H](CCC(=O)O)C(=O)O)cc1` [Methotrexate] to `CC(=O)Nc1nc(C)c(-c2ccc(Cl)c(S(=O)(=O)NCCO)c2)s1` [PIK93], the cell viability rises from 28 ± 3.4% to 100 ± 9.8%.

`COC(=O)c1cc2c(C(F)(F)F)cc(-c3ccccc3)cc2n1O` [NHI-2] and `CCCCCCCC/C=C\CCCCCCCC(=O)Nc1ccccc1` [Octadec-9-Enoic Acid Phenylamide] are within error of each other in cell viability: 103 ± 8.9% for the first, 104 ± 4.4% for the second.

`CC[C@H](C)[C@H](N)C(=O)N1CCSC1` [P32/98] and `OC[C@H]1O[C@@H](n2cnc3c2N=CNC[C@H]3O)C[C@@H]1O` [Pentostatin] are within error of each other in cell viability: 102 ± 5.5% for the first, 100 ± 3.5% for the second.

In the case of `CC(C)CC(=O)N[C@H](C(=O)N[C@H](C(=O)N[C@@H](CC(C)C)[C@@H](O)CC(=O)N[C@@H](C)C(=O)N[C@@H](CC(C)C)[C@@H](O)CC(=O)O)C(C)C)C(C)C` [Pepstatin A], the cell viability is reported as 103 ± 6%.
